In patent US6469040B2, “Method of using cyclooxygenase-2 inhibitors in the treatment and prevention of neoplasia” (G.D. Searle & Co., priority 1997, dated 2002):

What was measured:
[1] = system: PC-3 cells; test: PC-3 human prostate cancer cell tumors in nude mice; format: in vivo; details: 20 mg/kg/day in water from day 28, after 45 days
Procedure: (§1) Two human prostate cancer cell lines (PC-3 and LNCaP) were obtained (ATCC) to determine the efficacy of cyclooxygenase-2 inhibitors to inhibit tumor growth in a therapeutic model. In addition, the LNCaP cell line secretes prostate serum antigen (PSA) when grown in nude mice.
PC-3 cells (10^6 cells/0.2 ml of 30% matrigel) in RPMI 1640 medium was injected on the back of nude mice. […] After 45 days, PGE2 and TXB2 were measured.

[2] = system: LNCaP; test: LNCaP human prostate cancer cell tumors in nude mice; format: in vivo; details: 6 mg/kg/day in drinking water
Description: as §1
PSA level was reduced to approximately 50% as judged by western blotting.

[3] = system: Lewis Lung carcinoma cells; details: CTX 50 mg/kg injected on days 5, 7 and 9
Procedure: Lewis Lung carcinoma cells (2.5×10^6 cells) prepared from a brei carried in C57BL/6 mice were injected subcutaneously into the hind legs of mice. […] Cyclophosphamide (CTX) was injected to mice on days 5,7 and 9 after the implantation of the tumor at a dose of 50 mg/kg. Tumor volume was determined during the study. The % inhibition was calculated as above.

NS(=O)(=O)c1ccc(-n2nc(C(F)F)cc2-c2ccc(Cl)cc2)cc1 [COX-2 inhibitor, 4-[5-(4-chlorophenyl)-3-(difluoromethyl)-1H-pyrazol-1-yl]benzenesulfonamide]
PGE2 level reduction [1]: 80-90% | TXB2 level reduction [1]: 80-90% | inhibition of growth of the tumor ([2]; day 58): 55% | PSA level reduced to ([2]; judged by western blotting): approximately 50%

O=P1(N(CCCl)CCCl)NCCCO1 (centres unmarked) [CTX, Cyclophosphamide]
Tumor Volume (Day 22) % Inhibition [3]: 57%
